According to ChEMBL document CHEMBL1806350, “Probes for narcotic receptor mediated phenomena. 43. Synthesis of the ortho-a and para-a, and improved synthesis and optical resolution of the ortho-b and para-b oxide-bridged phenylmorphans: compounds with moderate to low opioid-receptor affinity” (Bioorg Med Chem, 2011):

Assays:
[1] = target: T1, Kappa-type opioid receptor (Homo sapiens, UniProt P41145); test: Displacement of [125I]IOXY from human kappa opioid receptor expressed in CHO cells coexpressing human recombinant KOP after 2 hrs by liquid scintillation counting; type: cell-based
[2] = target: T1, Kappa-type opioid receptor; conditions: CHO
Description: Antagonist activity at human kappa opioid receptor expressed in CHO cells coexpressing human recombinant KOP after 3 hrs by [35S]GTPgammaS binding assay

[3] = target: Delta-type opioid receptor (Homo sapiens, UniProt P41143); test: Displacement of [125I]IOXY from human delta opioid receptor expressed in CHO cells coexpressing human recombinant DOR after 2 hrs by liquid scintillation counting; type: cell-based
Mu-type opioid receptor [4] = target: T2, Mu-type opioid receptor (Homo sapiens, UniProt P35372); conditions: CHO
Description: Antagonist activity at human mu opioid receptor expressed in CHO cells coexpressing human recombinant MOR after 3 hrs by [35S]GTPgammaS binding assay

Mu-type opioid receptor [5] = target: T2, Mu-type opioid receptor; test: biochemical; type: cell-based, CHO

Delta-type opioid receptor, sequence (P41143 whole entry): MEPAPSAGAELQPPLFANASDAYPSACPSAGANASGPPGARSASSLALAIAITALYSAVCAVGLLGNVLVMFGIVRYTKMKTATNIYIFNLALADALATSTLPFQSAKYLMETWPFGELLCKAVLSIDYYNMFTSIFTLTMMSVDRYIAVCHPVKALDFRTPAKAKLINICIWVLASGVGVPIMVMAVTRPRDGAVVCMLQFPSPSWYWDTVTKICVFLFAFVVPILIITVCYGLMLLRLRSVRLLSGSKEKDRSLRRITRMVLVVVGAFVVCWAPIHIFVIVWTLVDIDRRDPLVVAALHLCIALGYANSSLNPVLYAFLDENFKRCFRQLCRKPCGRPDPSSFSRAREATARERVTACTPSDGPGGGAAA
T2 sequence (P35372 whole entry): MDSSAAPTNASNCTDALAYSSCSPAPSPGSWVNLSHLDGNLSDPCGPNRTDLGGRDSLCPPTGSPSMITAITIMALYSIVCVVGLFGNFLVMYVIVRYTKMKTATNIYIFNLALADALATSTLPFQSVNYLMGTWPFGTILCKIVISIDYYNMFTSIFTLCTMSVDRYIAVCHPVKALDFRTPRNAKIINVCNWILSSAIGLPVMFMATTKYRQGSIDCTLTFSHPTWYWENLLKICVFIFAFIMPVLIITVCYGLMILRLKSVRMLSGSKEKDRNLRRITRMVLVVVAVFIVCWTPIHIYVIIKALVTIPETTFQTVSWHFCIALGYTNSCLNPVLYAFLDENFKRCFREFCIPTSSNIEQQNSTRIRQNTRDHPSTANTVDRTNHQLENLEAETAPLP
T1 sequence (P41145 whole entry): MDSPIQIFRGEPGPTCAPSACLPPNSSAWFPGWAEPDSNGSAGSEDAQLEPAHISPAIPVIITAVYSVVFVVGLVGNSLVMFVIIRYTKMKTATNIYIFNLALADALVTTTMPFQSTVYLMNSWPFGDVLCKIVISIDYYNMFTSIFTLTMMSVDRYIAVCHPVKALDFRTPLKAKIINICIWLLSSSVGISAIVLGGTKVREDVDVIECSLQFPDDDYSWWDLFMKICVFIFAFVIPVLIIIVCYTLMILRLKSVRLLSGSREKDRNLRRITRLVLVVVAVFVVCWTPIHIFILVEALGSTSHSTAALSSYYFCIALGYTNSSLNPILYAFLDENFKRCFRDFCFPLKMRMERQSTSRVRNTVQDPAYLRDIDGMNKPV

SMILES | Ki [1] [nM] | Ke [2] [nM] | Ki [3] [nM] | Ke (Mu-type opioid receptor [4]) [nM] | Ki (Mu-type opioid receptor [5]) [nM] | Ki ([1]; cho) [nM] | Ki ([3]; cho) [nM] | Ki (Mu-type opioid receptor [5]; cho) [nM]
Oc1ccc2c(c1)[C@@]13CCN(CCc4ccccc4)[C@@H](CC[C@H]1O2)C3 | 102 | 103 | > 5000 | 227 | 352 |  |  | 
Oc1ccc2c(c1)[C@]13CCN(CCc4ccccc4)[C@H](CC[C@H]1O2)C3 (racemic) | 98 | 46 | > 4900 | 23 | 486 |  |  | 
Oc1cccc2c1O[C@@H]1CC[C@@H]3C[C@]21CCN3CCc1ccccc1 (racemic) | 171 | 163 | > 4900 | 274 | 167 |  |  | 
Oc1cccc2c1O[C@@H]1CC[C@H]3C[C@@]21CCN3CCc1ccccc1 | 42 | 22 | > 5000 | 31 | 49 |  |  | 
CN1CC[C@]23C[C@H]1CC[C@H]2Oc1ccc(O)cc13 (racemic) | > 8600 |  | > 4900 |  | > 2800 |  |  | 
Oc1ccc2c(c1)[C@]13CCN(CCc4ccccc4)[C@H](CC[C@@H]1O2)C3 | 199 | 100 | > 5000 | 47 | 250 |  |  | 
CN1CC[C@]23C[C@H]1CC[C@H]2Oc1c(O)cccc13 (racemic) | 7500 |  | > 4900 |  | > 2800 |  |  | 
Oc1cccc2c1O[C@H]1CC[C@@H]3C[C@]21CCN3CCc1ccccc1 |  | 761 |  | 328 |  | 367 | > 5000 | 384
